The record followed here is patent US20140205537A1, “LRRK2 INHIBITORS” (ZENOBIA THERAPEUTICS, INC., priority 2011, published 2014).

What all share (type): biochemical
One test concerns the target CK2 alpha 1 (Homo sapiens, UniProt P68400). Briefly: Kinase selectivity panel: CK2 alpha 1.
For another test, the target named is MARK2 (Homo sapiens, UniProt Q7KZI7). In words: Kinase selectivity panel: MARK2.
The target of another test is SRC (Homo sapiens, UniProt P12931). Briefly: Kinase selectivity panel: SRC.
The target of the next test is EPHA2 (Homo sapiens, UniProt P29317). In words: Kinase selectivity panel: EPHA2.
A further test addresses FGFR1 (Homo sapiens, UniProt P11362). In words: Kinase selectivity panel: FGFR1.
The next test concerns the target IKKbeta (Homo sapiens, UniProt O14920). Briefly: Kinase selectivity panel: IKKbeta.
The next test deals with HGK (Homo sapiens, UniProt O95819). In words: Kinase selectivity panel: HGK.
HGK, sequence (O95819 whole entry, species assumed): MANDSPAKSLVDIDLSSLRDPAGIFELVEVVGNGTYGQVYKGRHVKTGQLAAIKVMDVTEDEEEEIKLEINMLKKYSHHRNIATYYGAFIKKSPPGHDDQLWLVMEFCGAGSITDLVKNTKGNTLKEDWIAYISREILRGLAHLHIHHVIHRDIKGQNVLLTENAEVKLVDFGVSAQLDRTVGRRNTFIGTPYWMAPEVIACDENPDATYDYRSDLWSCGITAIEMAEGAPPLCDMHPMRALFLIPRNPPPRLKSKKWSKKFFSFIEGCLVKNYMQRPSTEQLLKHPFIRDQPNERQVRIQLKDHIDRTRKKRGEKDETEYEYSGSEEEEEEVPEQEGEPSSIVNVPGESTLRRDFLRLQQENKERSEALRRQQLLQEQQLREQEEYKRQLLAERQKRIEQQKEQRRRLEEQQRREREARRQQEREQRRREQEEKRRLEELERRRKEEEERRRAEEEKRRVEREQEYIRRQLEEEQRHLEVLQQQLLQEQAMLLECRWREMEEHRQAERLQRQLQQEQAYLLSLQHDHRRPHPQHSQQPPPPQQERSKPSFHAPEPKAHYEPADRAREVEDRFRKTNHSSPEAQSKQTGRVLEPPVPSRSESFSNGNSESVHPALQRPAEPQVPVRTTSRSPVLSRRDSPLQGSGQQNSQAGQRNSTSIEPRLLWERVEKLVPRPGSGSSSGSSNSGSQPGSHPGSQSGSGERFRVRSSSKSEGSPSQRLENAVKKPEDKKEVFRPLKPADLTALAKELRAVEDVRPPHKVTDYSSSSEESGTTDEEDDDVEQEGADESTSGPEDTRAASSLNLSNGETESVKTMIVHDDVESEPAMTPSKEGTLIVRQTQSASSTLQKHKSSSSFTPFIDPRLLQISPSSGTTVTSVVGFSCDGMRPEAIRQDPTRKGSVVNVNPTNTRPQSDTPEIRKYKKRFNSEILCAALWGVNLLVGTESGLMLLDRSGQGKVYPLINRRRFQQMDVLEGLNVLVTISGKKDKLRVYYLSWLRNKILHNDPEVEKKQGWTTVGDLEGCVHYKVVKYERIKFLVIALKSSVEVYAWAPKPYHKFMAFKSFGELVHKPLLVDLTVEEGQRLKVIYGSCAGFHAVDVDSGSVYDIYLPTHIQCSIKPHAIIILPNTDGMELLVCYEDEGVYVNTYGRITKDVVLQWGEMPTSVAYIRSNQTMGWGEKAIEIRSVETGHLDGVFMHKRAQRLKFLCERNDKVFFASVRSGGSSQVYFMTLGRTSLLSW
In another test the target is T1, CHEK1 (Homo sapiens, UniProt O14757).
T1 sequence (O14757 1-476): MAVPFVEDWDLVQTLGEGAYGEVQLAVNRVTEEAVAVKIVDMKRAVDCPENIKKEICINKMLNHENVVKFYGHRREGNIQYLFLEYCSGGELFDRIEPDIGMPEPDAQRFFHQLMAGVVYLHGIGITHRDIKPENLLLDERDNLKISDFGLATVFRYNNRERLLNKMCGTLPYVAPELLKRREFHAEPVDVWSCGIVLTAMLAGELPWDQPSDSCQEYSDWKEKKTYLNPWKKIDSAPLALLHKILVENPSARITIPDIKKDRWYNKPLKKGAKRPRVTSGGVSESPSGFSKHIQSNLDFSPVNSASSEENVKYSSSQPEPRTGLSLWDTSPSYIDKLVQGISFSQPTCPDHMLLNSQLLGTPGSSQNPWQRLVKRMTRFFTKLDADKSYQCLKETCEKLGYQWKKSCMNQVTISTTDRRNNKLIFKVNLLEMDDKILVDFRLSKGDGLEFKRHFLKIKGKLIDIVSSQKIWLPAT
In words: Kinase selectivity panel: CHEK1.

For another test, the target named is PDGFRbeta (Homo sapiens, UniProt P09619). In words: Kinase selectivity panel: PDGFRbeta.
For another test, the target named is PIM1 (Homo sapiens, UniProt P11309). Briefly: Kinase selectivity panel: PIM1.
The target in another test is KDR (Homo sapiens, UniProt P35968). Briefly: Kinase selectivity panel: KDR.
In the next test the target is NEK1 (Homo sapiens, UniProt Q96PY6). Briefly: Kinase selectivity panel: NEK1.
A further test deals with DCK2 (Homo sapiens, UniProt Q8N568). In words: Kinase selectivity panel: DCK2.
The target of the next test is ABL1 (Homo sapiens, UniProt P00519). In words: Kinase selectivity panel: ABL1.
ABL1, sequence (P00519 whole entry, species assumed): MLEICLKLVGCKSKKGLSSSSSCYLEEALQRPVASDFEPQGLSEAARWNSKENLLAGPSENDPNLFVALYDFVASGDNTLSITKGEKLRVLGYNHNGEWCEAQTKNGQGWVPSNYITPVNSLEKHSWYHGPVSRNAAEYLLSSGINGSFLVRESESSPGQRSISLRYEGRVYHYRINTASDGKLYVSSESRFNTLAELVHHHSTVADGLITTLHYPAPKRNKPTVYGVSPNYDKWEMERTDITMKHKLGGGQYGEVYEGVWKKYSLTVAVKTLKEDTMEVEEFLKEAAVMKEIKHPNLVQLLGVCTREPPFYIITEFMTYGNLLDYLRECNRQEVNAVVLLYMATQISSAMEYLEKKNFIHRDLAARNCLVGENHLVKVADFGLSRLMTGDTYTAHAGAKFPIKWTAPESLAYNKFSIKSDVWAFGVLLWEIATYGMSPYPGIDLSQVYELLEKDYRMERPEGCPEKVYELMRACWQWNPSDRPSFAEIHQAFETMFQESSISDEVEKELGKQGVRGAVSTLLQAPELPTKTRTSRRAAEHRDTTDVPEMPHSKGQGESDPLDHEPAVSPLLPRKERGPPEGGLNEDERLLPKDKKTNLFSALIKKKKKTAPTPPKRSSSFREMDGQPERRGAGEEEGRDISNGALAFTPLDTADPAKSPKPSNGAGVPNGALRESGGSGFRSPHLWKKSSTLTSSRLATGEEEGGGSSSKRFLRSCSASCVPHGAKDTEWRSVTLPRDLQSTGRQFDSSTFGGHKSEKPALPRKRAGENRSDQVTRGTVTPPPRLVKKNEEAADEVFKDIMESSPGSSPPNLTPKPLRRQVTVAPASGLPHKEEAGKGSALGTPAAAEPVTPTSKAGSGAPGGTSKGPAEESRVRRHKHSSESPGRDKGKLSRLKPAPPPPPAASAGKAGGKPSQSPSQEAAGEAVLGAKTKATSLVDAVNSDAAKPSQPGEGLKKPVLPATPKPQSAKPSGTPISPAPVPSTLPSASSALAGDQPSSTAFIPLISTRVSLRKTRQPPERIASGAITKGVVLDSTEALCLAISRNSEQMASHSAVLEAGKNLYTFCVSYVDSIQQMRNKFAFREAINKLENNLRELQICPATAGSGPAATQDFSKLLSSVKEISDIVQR
The target in the next test is cMet (Homo sapiens, UniProt P08581). Briefly: Kinase selectivity panel: cMet.
The next test concerns the target KIT (Homo sapiens, UniProt P10721). In words: Kinase selectivity panel: KIT.
In another test the target is RSK2 (Homo sapiens, UniProt P51812). Briefly: Kinase selectivity panel: RSK2.
RSK2, sequence (P51812 whole entry, species assumed): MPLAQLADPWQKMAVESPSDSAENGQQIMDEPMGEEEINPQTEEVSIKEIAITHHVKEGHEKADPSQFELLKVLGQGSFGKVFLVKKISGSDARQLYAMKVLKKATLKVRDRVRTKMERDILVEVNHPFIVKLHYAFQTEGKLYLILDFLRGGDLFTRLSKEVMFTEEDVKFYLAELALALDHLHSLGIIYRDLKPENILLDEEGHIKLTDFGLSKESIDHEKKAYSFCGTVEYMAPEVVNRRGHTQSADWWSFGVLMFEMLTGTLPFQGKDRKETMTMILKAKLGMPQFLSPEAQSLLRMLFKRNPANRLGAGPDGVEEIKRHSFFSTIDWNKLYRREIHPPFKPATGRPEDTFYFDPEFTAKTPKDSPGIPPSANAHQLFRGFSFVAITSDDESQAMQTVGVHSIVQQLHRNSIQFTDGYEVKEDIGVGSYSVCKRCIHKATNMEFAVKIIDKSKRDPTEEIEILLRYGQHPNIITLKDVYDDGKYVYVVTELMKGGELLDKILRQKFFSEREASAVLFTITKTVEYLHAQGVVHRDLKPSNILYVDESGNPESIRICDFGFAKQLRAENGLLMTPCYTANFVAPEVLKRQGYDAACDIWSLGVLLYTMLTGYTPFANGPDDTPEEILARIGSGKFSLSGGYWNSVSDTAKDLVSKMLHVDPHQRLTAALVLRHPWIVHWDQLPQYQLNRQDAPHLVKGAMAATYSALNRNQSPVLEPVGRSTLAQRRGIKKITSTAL
A further test concerns the target LCK (Homo sapiens, UniProt P06239). In words: Kinase selectivity panel: LCK.
For another test, the target named is MLK1 (Homo sapiens, UniProt P80192). Briefly: Kinase selectivity panel: MLK1.

MARK2, sequence (Q7KZI7 whole entry, species assumed): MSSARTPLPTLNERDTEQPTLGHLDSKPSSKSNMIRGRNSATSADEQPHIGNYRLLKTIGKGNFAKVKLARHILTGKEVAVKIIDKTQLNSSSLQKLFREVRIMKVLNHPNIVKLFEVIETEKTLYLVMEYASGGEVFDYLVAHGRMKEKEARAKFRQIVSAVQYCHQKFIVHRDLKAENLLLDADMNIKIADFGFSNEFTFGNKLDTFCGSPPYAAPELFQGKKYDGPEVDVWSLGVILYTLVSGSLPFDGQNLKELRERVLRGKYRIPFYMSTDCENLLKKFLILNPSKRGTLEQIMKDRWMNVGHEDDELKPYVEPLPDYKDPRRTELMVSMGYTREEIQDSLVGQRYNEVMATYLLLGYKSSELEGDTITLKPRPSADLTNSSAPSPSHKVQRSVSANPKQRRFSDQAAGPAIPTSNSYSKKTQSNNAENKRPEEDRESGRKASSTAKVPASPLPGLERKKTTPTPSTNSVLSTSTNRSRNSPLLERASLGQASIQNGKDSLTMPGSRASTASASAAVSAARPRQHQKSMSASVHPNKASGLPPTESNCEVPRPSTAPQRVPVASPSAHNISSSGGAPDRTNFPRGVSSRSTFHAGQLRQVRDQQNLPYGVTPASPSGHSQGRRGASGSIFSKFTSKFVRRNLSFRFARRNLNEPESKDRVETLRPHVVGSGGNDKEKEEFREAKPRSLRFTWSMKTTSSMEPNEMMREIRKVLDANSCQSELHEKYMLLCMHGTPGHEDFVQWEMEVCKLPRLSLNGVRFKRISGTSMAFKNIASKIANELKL
CK2 alpha 1, sequence (P68400 whole entry): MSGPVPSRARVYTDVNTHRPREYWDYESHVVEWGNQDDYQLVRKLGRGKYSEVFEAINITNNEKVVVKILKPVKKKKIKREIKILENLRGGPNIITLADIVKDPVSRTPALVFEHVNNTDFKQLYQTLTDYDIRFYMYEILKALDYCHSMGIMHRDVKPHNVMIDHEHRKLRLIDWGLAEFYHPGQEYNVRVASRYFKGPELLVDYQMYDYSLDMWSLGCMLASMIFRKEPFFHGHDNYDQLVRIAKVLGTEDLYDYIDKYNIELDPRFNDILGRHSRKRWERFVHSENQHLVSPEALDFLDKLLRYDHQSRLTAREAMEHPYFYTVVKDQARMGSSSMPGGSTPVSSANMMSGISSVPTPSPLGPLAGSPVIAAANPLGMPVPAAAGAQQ
LCK, sequence (P06239 whole entry, species assumed): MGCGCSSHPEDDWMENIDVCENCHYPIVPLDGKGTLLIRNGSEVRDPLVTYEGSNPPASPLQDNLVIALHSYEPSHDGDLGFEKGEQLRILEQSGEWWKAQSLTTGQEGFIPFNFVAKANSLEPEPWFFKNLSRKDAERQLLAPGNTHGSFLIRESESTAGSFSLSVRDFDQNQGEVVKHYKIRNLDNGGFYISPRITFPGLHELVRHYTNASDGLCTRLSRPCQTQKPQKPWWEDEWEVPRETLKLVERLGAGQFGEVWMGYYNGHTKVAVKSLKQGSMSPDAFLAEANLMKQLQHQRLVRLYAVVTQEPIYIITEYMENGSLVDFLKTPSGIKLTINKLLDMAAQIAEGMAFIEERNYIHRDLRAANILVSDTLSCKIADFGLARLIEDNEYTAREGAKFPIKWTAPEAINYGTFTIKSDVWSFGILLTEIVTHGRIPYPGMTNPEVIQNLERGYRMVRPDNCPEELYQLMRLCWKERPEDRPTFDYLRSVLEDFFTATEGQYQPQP

Take `COc1ccc2c(c1)/C(=C/c1cnc(C3CCOCC3)[nH]1)C(=O)N2` [Compound 18, (3Z)-5-methoxy-3-[(2-tetrahydropyran-4-yl-1H-imidazol-5-yl)methylene]indolin-2-one]: the inhibition at 0.1 µM against CK2 alpha 1 was determined as 6%; at MARK2 (@0.1 uM), 5%; at SRC it was 13%; on EPHA2, 2%; at FGFR1 it was 9%; at IKKbeta, 7%. Further, the inhibition at 0.1 µM at HGK is -18%; against CHEK1 (@0.1 uM), 3%; at PDGFRbeta, 4%; against PIM1 it was -2%; on KDR, 1%; on NEK1, 10%. Also, the inhibition at 0.1 µM was 8% against DCK2; 5% against ABL1 (@0.1 uM); 7% against cMet; 4% at KIT; 3% against RSK2; 3% on LCK. Also, at MLK1, the inhibition at 0.1 µM was -17%. Moreover, the IC50 against MARK2 is 7.94 µM; against CHEK1, greater than 10 µM; on ABL1, greater than 10 µM.
